Data as given in US12590099B2, “Inhibitors of histone deacetylase useful for the treatment or prevention of HIV infection” (Merck Sharp & Dohme LLC, priority 2018, dated 2026).
Like-named read-outs stand apart in the source and are kept apart here.

Assays:
HDAC6 = biological target: T1, HDAC6 (Homo sapiens, UniProt Q9UBN7); experiment: Human HDAC enzyme inhibitor Fluor-de-Lys assay, HDAC6; assay type: biochemical
T1 sequence (Q9UBN7 1-1215): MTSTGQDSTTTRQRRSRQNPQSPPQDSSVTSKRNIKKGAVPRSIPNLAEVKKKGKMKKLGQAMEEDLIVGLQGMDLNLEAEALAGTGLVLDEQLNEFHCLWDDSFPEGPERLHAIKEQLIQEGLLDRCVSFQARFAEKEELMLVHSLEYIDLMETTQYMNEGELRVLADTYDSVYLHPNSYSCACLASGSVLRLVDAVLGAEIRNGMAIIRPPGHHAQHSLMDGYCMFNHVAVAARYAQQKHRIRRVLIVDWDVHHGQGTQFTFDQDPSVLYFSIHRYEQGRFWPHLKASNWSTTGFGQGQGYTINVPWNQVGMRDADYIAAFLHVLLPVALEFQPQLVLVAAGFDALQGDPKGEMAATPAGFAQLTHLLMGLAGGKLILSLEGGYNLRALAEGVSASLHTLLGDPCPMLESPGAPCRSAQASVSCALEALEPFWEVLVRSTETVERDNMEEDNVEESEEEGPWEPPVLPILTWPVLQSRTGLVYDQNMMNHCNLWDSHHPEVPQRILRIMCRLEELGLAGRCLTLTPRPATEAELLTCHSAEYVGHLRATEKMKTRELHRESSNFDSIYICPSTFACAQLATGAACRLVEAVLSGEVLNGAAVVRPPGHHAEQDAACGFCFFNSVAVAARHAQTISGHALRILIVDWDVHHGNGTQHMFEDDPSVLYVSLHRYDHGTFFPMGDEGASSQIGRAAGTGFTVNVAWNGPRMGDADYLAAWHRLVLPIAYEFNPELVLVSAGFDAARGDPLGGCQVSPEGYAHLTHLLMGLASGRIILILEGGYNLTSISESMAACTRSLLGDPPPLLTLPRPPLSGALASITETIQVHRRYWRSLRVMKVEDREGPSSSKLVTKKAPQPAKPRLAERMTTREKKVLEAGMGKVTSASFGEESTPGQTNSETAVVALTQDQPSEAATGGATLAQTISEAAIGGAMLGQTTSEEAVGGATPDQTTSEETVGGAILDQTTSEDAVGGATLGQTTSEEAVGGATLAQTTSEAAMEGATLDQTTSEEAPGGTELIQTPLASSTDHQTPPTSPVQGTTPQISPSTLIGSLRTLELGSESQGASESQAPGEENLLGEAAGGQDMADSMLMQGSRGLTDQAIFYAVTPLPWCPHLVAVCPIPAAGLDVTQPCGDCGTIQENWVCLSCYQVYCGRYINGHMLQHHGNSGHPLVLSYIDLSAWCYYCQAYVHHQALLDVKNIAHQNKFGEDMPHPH
Procedure: (§1) Human HDAC Enzyme Inhibitor Fluor-De-Lys Assay
(§2) Recombinant human HDAC8 (BML-SE145-0100) and HDAC10 (BML-SE559-0050) enzymes, HDAC substrates BML-KI104 and BML-KI178, and HDAC developer solutions BML-KI105 and BML-KI176 were purchased from Enzo Life Sciences. […] HDAC inhibitor suberoylanilide hydroxamic acid (SAHA) was obtained from Indofine and trichostatin A (TSA) was obtained from Sigma-Aldrich.
(§3) The histone deacetylase activities of HDAC1, HDAC2, HDAC3, HDAC6, and HDAC8 were measured in modified FLUOR DE LYS assays in 384-well format. In this assay, HDAC enzymes are initially incubated with an ε-acetyl (or -trifluoroacetyl)-L-lysine-containing substrate with a C-terminal amide having aminomethylcoumarin as the amine component. HDACs cleave the ε-acetyl group, rendering the resulting product susceptible to AMC cleavage by trypsin. The released AMC is then detected by its fluorescence.
(§4) The HDAC3/SMRT assay employed buffer B, consisting of 20 mM HEPES, pH 8.0, 1 mM MgCl2, 50 mM NaCl, 2.7 mM KCl, 0.05% BSA, 0.005% Tween 20, and 10 μM IP4. […] The HDAC8 assay employed buffer D, consisting of 20 mM HEPES, pH 8.0, 1 mM MgCl2, 100 mM NaCl, 20 mM KCl, 0.10% n-octyl-β-D-glucoside (Anatrace) and 0.05% BSA. All steps were performed at room temperature (23° C.). The assay was performed by pre-incubating serial dilutions of test compounds with the target HDAC prior to initiation with substrate. Each compound was titrated in a 10-point dose response, using a 1:3 fold dilution scheme, with 0.15 ul of solution added by ECH0555 to the plate, followed by the addition of 20 μl of the appropriate HDAC isoform diluted in appropriate assay buffer. […] Final conditions used for each assay were: 1. HDAC 1, 0.3 nM total enzyme, 20 μM substrate BML-KI104; 2. […] HDAC 3/SMRT, 0.3 nM total enzyme, 20 μM substrate BML-KI104; 4. […] The reactions were stopped and developed by addition of 30 ul of HDAC developer solution containing a saturating level of HDAC inhibitor as follows: 1.

KARN cells (Jurkat 2C4) = experiment: cells; assay type: cell-based; conditions: Homo sapiens, Jurkat
Procedure: KARN cells (Jurkat 2C4) were licensed from the laboratory of Dr. John Karn, Case Western Reserve University, School of Medicine. […] An atmosphere of 5% CO2 and 90% humidity was used for all culture work.
Day 1: After the 3-4 day growth period, the cells were transferred from the T175 flask to a 50 ml conical tube and gently pelleted at 1000 rpm for 5 minutes. […] These flasks were returned to the incubator.
Day 2: Cell Preparation: The next day, the cells were transferred from each T175 flask to an individual 50 ml conical tube and gently pelleted at 1000 rpm for 5 minutes. The cells were gently resuspended in assay media (30 ml) and pelleted again. […] The cells were counted using the ViCell (Beckman Coulter) and diluted as necessary. […] The plates were covered and returned to the incubator prior to compound addition.
The reference compounds, DMSO and SAHA were then added to the compound plate. […] The final high concentration for SAHA and the test compounds in the assays was 40 μM. The final DMSO concentration in all wells was 0.4%. The minimal induction reference compound used was DMSO and the maximal induction reference compound used was SAHA (2 μM final concentration in the assay).
Day 3: The luciferase detection reagent was prepared by transferring the contents of one bottle of Steady-Glo buffer to one bottle of Steady-Glo aubstrate (Steady-Glo Luciferase Assay System, Promega, catalog number E2520), followed by gently mixing until the substrate was thoroughly dissolved and the solution was equilibrated to room temperature. […] The Steady-Glo Reagent was added to the plates (30 μl/well), which were then covered with a black lid and incubated for 10 minutes at room temperature. The plates were then read for luminescence on an Envision (Perkin Elmer) using the ultrasensitive mode (US LUM), […] and 384-well aperture. Luminescence counts in the DMSO reference wells were considered as 0% induction, while those in the 2 μM SAHA reference wells were considered as 100% induction. Dose response curves were plotted as test compound concentration (X-axis) vs. percent activation (Y-axis) using a 4-parameter fit based on the Levenberg-Marquardt algorithm.

Recombinant human HDAC8 = biological target: T2, Recombinant human HDAC8 (Homo sapiens, UniProt Q9BY41); experiment: Human HDAC enzyme inhibitor Fluor-de-Lys assay, HDAC8; assay type: biochemical
T2 construct: purchased Enzo Life Sciences BML-SE145-0100
T2 sequence (Q9BY41 1-377): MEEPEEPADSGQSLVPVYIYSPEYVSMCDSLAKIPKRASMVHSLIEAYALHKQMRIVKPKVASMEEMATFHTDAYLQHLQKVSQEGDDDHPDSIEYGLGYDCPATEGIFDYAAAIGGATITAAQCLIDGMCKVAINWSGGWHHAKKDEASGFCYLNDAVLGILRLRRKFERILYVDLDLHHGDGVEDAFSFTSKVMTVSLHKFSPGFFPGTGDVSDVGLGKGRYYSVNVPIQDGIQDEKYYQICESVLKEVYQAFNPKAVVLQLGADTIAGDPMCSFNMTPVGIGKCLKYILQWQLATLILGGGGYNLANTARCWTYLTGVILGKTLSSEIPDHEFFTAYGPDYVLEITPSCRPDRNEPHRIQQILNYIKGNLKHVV
Procedure: as §1, §2, §3, §4

[1] = read-out: Karn EC50 (nM) 0.1% NHS, 0.1% normal human serum, luciferase induction, 100% = 2 μM SAHA
[2] = read-out: Karn EC50 (nM) 5% NHS, 5% normal human serum, luciferase induction, 100% = 2 μM SAHA
[3] = recombinant human HDAC8, Fluor-de-Lys assay
[4] = read-out: Karn EC50 (nM) 0.1% NHS, 0.1% normal human serum
[5] = read-out: Karn EC50 (nM) 5% NHS, 5% normal human serum

| SMILES | IC50 (HDAC6; HDAC6, Fluor-de-Lys assay) [nM] | EC50 (KARN cells (Jurkat 2C4); [1]) [nM] | EC50 (KARN cells (Jurkat 2C4); [2]) [nM] | IC50 (Recombinant human HDAC8; [3]) [nM] | IC50 (HDAC6) [nM] | EC50 (KARN cells (Jurkat 2C4); [4]) [nM] | EC50 (KARN cells (Jurkat 2C4); [5]) [nM] | IC50 (Recombinant human HDAC8) [nM] |
| --- | --- | --- | --- | --- | --- | --- | --- | --- |
| CCCN1CCC2(CC1)C[C@@H]2C(=O)N[C@@H](CCCCCC(=O)CC)c1ncc(-c2cc3ccccc3nc2OC)[nH]1 [Compound 331] | 490 | 154 | 896 | 2030 | – | – | – | – |
| CCC(=O)CCCCC[C@H](NC(=O)[C@H]1CC12CCN(Cc1ccccc1)CC2)c1ncc(-c2cc3ccccc3nc2OC)[nH]1 [Compound 293] | 727 | 75 | 175 | 8200 | – | – | – | – |
| CCC(=O)CCCCC[C@H](NC(=O)[C@@H]1CC12CCN(C)CC2)c1ncc(-c2cc3ccccc3nc2OC)[nH]1 (single isomer, unassigned) [Compound 320] | 709 | 339 | 1370 | 14600 | – | – | – | – |
| CCC(=O)CCCCC[C@H](NC(=O)[C@H]1CC12CCN(CC)CC2)c1ncc(-c2ccc3ncccc3c2)[nH]1 [Compound 346] | 545 | 46 | 57 | 3160 | – | – | – | – |
| CCC(=O)CCCCC[C@H](NC(=O)C1CC2(C1)CN(CC)C2)c1ncc(-c2cc3ccccc3nc2OC)[nH]1 [Compound 279] | 362 | 160 | 860 | 5120 | – | – | – | – |
| CCC(=O)CCCCC[C@H](NC(=O)[C@H]1CC12CCN(CCC(F)(F)F)CC2)c1ncc(-c2cc3ccccc3nc2OC)[nH]1 [Compound 332] | 745 | 78 | 343 | 14100 | – | – | – | – |
| CCC(=O)CCCCC[C@H](NC(=O)C1CC2(CCN(C)CC2)C1)c1ncc(-c2cc3ccccc3nc2OC)[nH]1 [Compound 277] | 405 | 140 | 708 | 1920 | – | – | – | – |
| CCC(=O)CCCCC[C@H](NC(=O)[C@H]1C[C@@]12CCN(C)C2)c1ncc(-c2cc3ccccc3nc2OC)[nH]1 [Compound 328] | 395 | 73 | 322 | 3310 | – | – | – | – |
| CCC(=O)CCCCC[C@H](NC(=O)[C@H]1CC12CCN(C(C)C)CC2)c1ncc(-c2cc3ccccc3nc2OC)[nH]1 [Compound 337] | 160 | 32 | 57 | 5660 | – | – | – | – |
| CCC(=O)CCCCC[C@H](NC(=O)C1CC12CN(C)C2)c1ncc(-c2cc3ccccc3nc2OC)[nH]1 (some centres unmarked) [Compound 312] | 299 | 155 | 633 | 2020 | – | – | – | – |
| CCC(=O)CCCCC[C@H](NC(=O)[C@@H]1CC12CN(C)C2)c1ncc(-c2cc3ccccc3nc2OC)[nH]1 [Compound 322] | 219 | 74 | 287 | 2490 | – | – | – | – |
| CCC(=O)CCCCC[C@H](NC(=O)[C@H]1CC12CCN(CC)CC2)c1ncc(-c2ccc(OC)cc2OC)[nH]1 [Compound 183] | – | – | – | – | 898 | 58 | 93 | 10400 |
| CCC(=O)CCCCC[C@H](NC(=O)[C@H]1CC12CCN(CC)CC2)c1ncc(-c2cc3ccccc3nc2OC)o1 [Compound 124] | – | – | – | – | 137 | 111 | 151 | 16000 |
| CCC(=O)CCCCC[C@H](NC(=O)[C@H]1CC12CCN(C)CC2)c1ncc(-c2cc3ccc(-n4cccn4)cc3nc2OC)[nH]1 [Compound 176, (1S)—N-[(1S)-1-{5-[2-methoxy-7-(1H-pyrazol-1-yl)quinolin-3-yl]-1H-imidazol-2-yl}-7-oxononyl]-6-methyl-6-azaspiro[2.5]octane-1-carboxamide] | – | – | – | – | > 1500 | 45 | 76 | > 4500 |
| CCC(=O)CCCCC[C@H](NC(=O)C1CCC2(CC1)CN(CC)C2)c1ncc(-c2cc3ccccc3nc2OC)[nH]1 [Compound 271] | 464 | 154 | 634 | 1750 | – | – | – | – |
| CCC(=O)CCCCC[C@H](NC(=O)[C@H]1CC12CCN(Cc1cccnc1)CC2)c1ncc(-c2cc3ccccc3nc2OC)[nH]1 [Compound 294] | 415 | 63 | 277 | 4920 | – | – | – | – |
| CCC(=O)CCCCC[C@H](NC(=O)C1CC2(C1)CN(C)C2)c1ncc(-c2cc3ccccc3nc2OC)[nH]1 [Compound 311] | 385 | 131 | 841 | 2660 | – | – | – | – |
